From US8221733B2, “Virucidal disinfectant” (priority 2002, dated 2012)
Like-named read-outs stand apart in the source and are kept apart here.

Tested on: poliovirus type 1 (Mahoney strain)
Format: cell-based
Details: 0.7% strength formaldehyde

Structure (SMILES): C=O [formaldehyde]
- virus concentration (exposure time 5 min): 1.05e+06 mL⁻¹
- virus concentration (exposure time 15 min): 1000 mL⁻¹
- virus concentration (exposure time 60 min): ≤ 500 mL⁻¹
